Measured values reported in patent publication US20200270309A1, “MALEIMIDE GROUP-MODIFIED ANGIOGENESIS INHIBITOR HM-1 AND USE THEREOF” (NANJING ANJI BIOLOGICAL TECHNOLOGY CO., LTD, priority 2017, published 2020).
Read-outs that look alike come from different tables or passages of the source. Ends that are not written are not given here. Peptide text beside a SMILES is read from it. * marks the point of attachment. Mal(CH2CH2O)6CH2CH2CO = O=C1C=CC(=O)N1CCOCCOCCOCCOCCOCCOCCC(=O)*; Hexanoyl(6-maleimido) = O=C1C=CC(=O)N1CCCCCC(=O)*; X11 = O=C1C=CC(=O)N1CCOCCOCCOCCOCCOCCCCCC(=O)*; X20 = O=C1C=CC(=O)N1CCOCCOCCOCCOCCOCCCC(=O)*; X19 = O=C1C=CC(=O)N1CCOCCOCCOCCOCCOCC(=O)*; X33 = O=C1C=CC(=O)N1CCOCCOCCOCCCCC(=O)*; X77 = O=C1C=CC(=O)N1CCCCCCCCCCC(=O)*; X80 = O=C1C=CC(=O)N1c1ccccc1CCC(=O)*; X21 = O=C1C=CC(=O)N1CCOCCCCCCC(=O)*; X13 = O=C1C=CC(=O)N1CCOCCCCCC(=O)*

Assay: Half-lives and pharmacokinetic parameters of polypeptides vs HM-1
Conditions: in vivo

Molecule | AUC(0-inf) [ng·h/mL] | MRT inf [h] | clearance [mL/min/kg] | half-life (T1/2β (half-life)) [h] | half-life [h] | AUC(0-inf) (read-out: AUC0-∞) [ng·h/mL] | clearance (read-out: CL (converted)) [mL/min/kg] | MRT inf (read-out: MRT0-∞) [h] | half-life (read-out: T1/2β (half-life) (converted)) [h] | half-life (read-out: half-life (converted)) [h]
C[C@H](NC(=O)CNC(=O)[C@H](CCCNC(=N)N)NC(=O)CCCCCOCCN1C(=O)C=CC1=O)C(=O)N[C@@H](CC(=O)O)C(=O)N[C@@H](CCCNC(=N)N)C(=O)N[C@@H](C)C(=O)NCC(=O)NCC(=O)NCC(=O)NCC(=O)N[C@@H](CCCNC(=N)N)C(=O)NCC(=O)N[C@@H](CC(=O)O)C(=O)O [X53] (X13-RGADRAGGGGRGD-OH) | 31100 ± 7940 | 55.5 ± 12.4 | 0.537 | 38.47 ± 0.24 |  |  |  |  |  | 
C[C@H](NC(=O)CNC(=O)[C@H](CCCNC(=N)N)NC(=O)CCCCCCCCCCN1C(=O)C=CC1=O)C(=O)N[C@@H](CC(=O)O)C(=O)N[C@@H](CCCNC(=N)N)C(=O)N[C@@H](C)C(=O)NCC(=O)NCC(=O)NCC(=O)NCC(=O)N[C@@H](CCCNC(=N)N)C(=O)NCC(=O)N[C@@H](CC(=O)O)C(=O)O [X10] (X77-RGADRAGGGGRGD-OH) | 31200 ± 7210 | 55.8 ± 12.9 | 0.535 | 38.64 ± 0.25 |  |  |  |  |  | 
C[C@H](NC(=O)CNC(=O)[C@H](CCCNC(=N)N)NC(=O)CCCCCOCCOCCOCCOCCOCCN1C(=O)C=CC1=O)C(=O)N[C@@H](CC(=O)O)C(=O)N[C@@H](CCCNC(=N)N)C(=O)N[C@@H](C)C(=O)NCC(=O)NCC(=O)NCC(=O)NCC(=O)N[C@@H](CCCNC(=N)N)C(=O)NCC(=O)N[C@@H](CC(=O)O)C(=O)O [X81] (X11-RGADRAGGGGRGD-OH) | 30700 ± 8170 | 54.9 ± 11.5 | 0.543 | 38.06 ± 0.28 |  |  |  |  |  | 
C[C@H](NC(=O)CNC(=O)[C@H](CCCNC(=N)N)NC(=O)COCCOCCOCCOCCOCCN1C(=O)C=CC1=O)C(=O)N[C@@H](CC(=O)O)C(=O)N[C@@H](CCCNC(=N)N)C(=O)N[C@@H](C)C(=O)NCC(=O)NCC(=O)NCC(=O)NCC(=O)N[C@@H](CCCNC(=N)N)C(=O)NCC(=O)N[C@@H](CC(=O)O)C(=O)O [X77] (X19-RGADRAGGGGRGD-OH) | 34600 ± 8180 | 61.9 ± 9.54 | 0.482 | 42.91 ± 0.25 |  |  |  |  |  | 
C[C@H](NC(=O)CNC(=O)[C@H](CCCNC(=N)N)NC(=O)CCCOCCOCCOCCOCCOCCN1C(=O)C=CC1=O)C(=O)N[C@@H](CC(=O)O)C(=O)N[C@@H](CCCNC(=N)N)C(=O)N[C@@H](C)C(=O)NCC(=O)NCC(=O)NCC(=O)NCC(=O)N[C@@H](CCCNC(=N)N)C(=O)NCC(=O)N[C@@H](CC(=O)O)C(=O)O [X79] (X20-RGADRAGGGGRGD-OH) | 30500 ± 8350 | 54.6 ± 10.2 | 0.547 | 37.87 ± 0.32 |  |  |  |  |  | 
C[C@H](NC(=O)CNC(=O)[C@H](CCCNC(=N)N)NC(=O)CCCCCCOCCN1C(=O)C=CC1=O)C(=O)N[C@@H](CC(=O)O)C(=O)N[C@@H](CCCNC(=N)N)C(=O)N[C@@H](C)C(=O)NCC(=O)NCC(=O)NCC(=O)NCC(=O)N[C@@H](CCCNC(=N)N)C(=O)NCC(=O)N[C@@H](CC(=O)O)C(=O)O [X54] (X21-RGADRAGGGGRGD-OH) | 27200 ± 7640 | 48.8 ± 11.2 | 0.612 | 33.83 ± 0.25 |  |  |  |  |  | 
C[C@H](NC(=O)CNC(=O)[C@H](CCCNC(=N)N)NC(=O)CCc1ccccc1N1C(=O)C=CC1=O)C(=O)N[C@@H](CC(=O)O)C(=O)N[C@@H](CCCNC(=N)N)C(=O)N[C@@H](C)C(=O)NCC(=O)NCC(=O)NCC(=O)NCC(=O)N[C@@H](CCCNC(=N)N)C(=O)NCC(=O)N[C@@H](CC(=O)O)C(=O)O [X14] (X80-RGADRAGGGGRGD-OH) | 29100 ± 7660 | 52 ± 13.5 | 0.573 | 36.04 ± 0.32 |  |  |  |  |  | 
C[C@H](NC(=O)[C@H](CCCNC(=N)N)NC(=O)[C@H](CC(=O)O)NC(=O)[C@H](CCC(=O)O)NC(=O)CNC(=O)[C@H](CCCNC(=N)N)NC(=O)CCCCCN1C(=O)C=CC1=O)C(=O)NCC(=O)NCC(=O)NCC(=O)NCC(=O)N[C@@H](CCCNC(=N)N)C(=O)NCC(=O)N[C@@H](CC(=O)O)C(=O)O [P6] ({Hexanoyl(6-maleimido)}-RGEDRAGGGGRGD-OH; C-terminus assumed) | 27700 ± 7130 | 49.6 ± 9.97 | 0.602 |  | 34.36 ± 0.25 |  |  |  |  | 
C[C@H](NC(=O)CNC(=O)[C@H](CCCNC(=N)N)NC(=O)CCCCOCCOCCOCCN1C(=O)C=CC1=O)C(=O)N[C@@H](CC(=O)O)C(=O)N[C@@H](CCCNC(=N)N)C(=O)N[C@@H](C)C(=O)NCC(=O)NCC(=O)NCC(=O)NCC(=O)N[C@@H](CCCNC(=N)N)C(=O)NCC(=O)N[C@@H](CC(=O)O)C(=O)O [X66] (X33-RGADRAGGGGRGD-OH) | 27700 ± 7510 | 49.6 ± 9.77 | 0.602 | 34.38 ± 0.25 |  |  |  |  |  | 
H-RGADRAGGGGRGD [HM-1, Arg-Gly-Ala-Asp-Arg-Ala-Gly-Gly-Gly-Gly-Arg-Gly-Asp] |  |  |  |  |  | 32800 ± 8410 | 24.8 | 0.068 ± 0.012 | 0.35 ± 0.14 | 0.34
C[C@H](NC(=O)CNC(=O)[C@H](CCCNC(=N)N)NC(=O)CCOCCOCCOCCOCCOCCOCCN1C(=O)C=CC1=O)C(=O)N[C@@H](CC(=O)O)C(=O)N[C@@H](CCCNC(=N)N)C(=O)N[C@@H](C)C(=O)NCC(=O)NCC(=O)NCC(=O)NCC(=O)N[C@@H](CCCNC(=N)N)C(=O)NCC(=O)N[C@@H](CC(=O)O)C(=O)O [X85] ({Mal(CH2CH2O)6CH2CH2CO}-RGADRAGGGGRGD-OH) | 33100 ± 8520 | 59.1 ± 10.4 | 0.505 | 40.97 ± 0.26 |  |  |  |  |  | 
